Measured values: article PMC9445589, “Apolipoprotein E mimetic peptide COG1410 combats pandrug-resistant Acinetobacter baumannii” (Frontiers in Microbiology, 2022)
In brackets after ≈: the same amount, converted by molar mass. Entries after “also recorded” stand apart in the source; their conditions may differ. Non-standard residues stand in square brackets, D forms with d. Residues, ends and D or L forms follow the SMILES beside them. Aib = CC(C)(N)C(=O)O

Key:
[1] = stability in human plasma, disk diffusion read-out; settings: 100% human plasma, 10 mg/ml, 37°C, first 2 h; disk diffusion on A. baumannii YQ4, three independent experiments
Experimental: In order to determine the stability in human plasma, COG1410 was dissolved in1 ml of 100 % human plasma with the final concentration of 10 mg/ml and incubated at 37°C without shaking. Aliquots of 100 μl were taken at 0, 1, 2, 4, 6, 8, and 10 h. The log-phase culture of A. baumannii YQ4 was prepared as described above. About 200 μl of culture was mixed with 6 ml of 0.8% soft agar to make a two-layered plate. After air drying for 30 min, four 6-mm paper disks were placed on the top, and 6-μl aliquots of COG1410 at different time points were dropped on the paper disks. After 18 h of incubation at 37°C, the inhibition zones were recorded by a digital camera, and the inhibition diameters were measured by image J. Three independent experiments were performed.
About 10 mg/ml of COG1410 was incubated with 100% human plasma at 37°C and sampled at different time points. The stability of COG1410 was determined by evaluating the antibacterial activity against PDR A. baumannii YQ4 through the disk diffusion assay. The diameters of inhibition were measured. Three independent experiments were performed and data were represented as mean ± SD. The statistical significance between initial and different points was analyzed by Student's t-test. ^* indicated p < 0.05; ^*** indicated p < 0.001. Click here for additional data file.

[2] = tested on: EBSL-producing Proteusbacillus vulgaris YQ19; settings: microdilution method in the corresponding broth
[3] = tested on: Mycobacterium smegmatis MC^2155; settings: Mycobacterium MC^2155
[4] = tested on: vancomycin-resistant Enterococcus faecium 11–47; settings: vancomycin-resistant 11–47
[5] = tested on: Caenorhabditis elegans (Bristol N2) infected with A. baumannii YQ4; assay: nematode killing assay, C. elegans infection model; settings: 16 μg/ml COG1410 in NGM plate, versus untreated group
A. baumannii YQ4 [6] = assay: ATP leak assay; assay type: cell-based, Acinetobacter baumannii; settings: 16 μg/ml COG1410, 16 μg/ml polymyxin B or 32 μg/ml tigecycline (1× MIC), PBS, 37°C, 30 min
Experimental: ATP leak assay was performed using the Enhanced ATP Assay Kit of Beyotime ([…]) according to the manufacturer's manual. […] The supernatant was harvested and used for the measurement of ATP levels. In total, 100 μl of supernatant was mixed with 100 μl of working solution, and the chemiluminescence was measured by using a Biotek Synergy H1 plate reader. The untreated sample was set as a negative control. The experiments were performed in triplicate.

[7] = tested on: Acinetobacter baumannii ATCC19606
[8] = tested on: Staphylococcus aureus ATCC29213; assay: MIC, microdilution method; assay type: cell-based; settings: microdilution method in the corresponding broth
Experimental: (§1) Strain stocks were maintained at −80°C in 10% glycerol. Bacteria were streaked on fresh plates before each experiment. Most of them were cultured in LB broth containing 10 g/L NaCl at 37°C, except for Mycobacteria in 7H9 broth and Enterococcus in BHI broth. Porphyromonas gingivalis was cultured in BHI broth supplemented with 1 μg/ml vitamin k1, 5 μg/ml hemin, and 5 mg/ml L-cysteine hydrochloride at 37°C in the anaerobic chamber. The minimal inhibitory concentrations (MICs) of antimicrobials were determined using the microdilution method in the corresponding broth.

[9] = tested on: Pseudomonas aeruginosa PAO1; assay: MIC, microdilution method; assay type: cell-based; settings: microdilution method in the corresponding broth
Experimental: as §1

A. baumannii YQ4 [10] = assay: Live/Dead BacLight SYTO-9/PI staining, confocal microscopy; assay type: cell-based, Acinetobacter baumannii; settings: 1× MIC COG1410 (16 μg/ml) or 5× MIC polymyxin B (80 μg/ml), 37°C, 30 min
Experimental: The damage to the cytoplasmic membrane was determined as described previously (Farkas et al., [2017]), with the Live/Dead BacLight bacterial viability kit (Invitrogen L7012). The log-phase culture of A. baumannii YQ4 was washed two times and suspended in PBS with the final OD600 of 0.1. […] Then, the cells were stained with 7.5 μM SYTO-9 and 30 μM propidium iodide (PI) in dark for 15 min. In total, 5 μl of culture was spotted on a clean slide coated with a thin layer of 1% agarose. The fluorescence was observed by Olympus FV3000 confocal laser scanning microscope. For SYTO-9, the excitation and emission were 483 and 503 nm, respectively. For PI, the excitation and emission were 493 and 636 nm, respectively.

A. baumanii YQ4 = assay: induction of resistance through serial passage; settings: sub-MIC exposure, 55 passages
[11] = tested on: EBSL-producing Klebsiella pneumoniae YQ7; settings: microdilution method in the corresponding broth
plasmid pUC18 = assay: DNA-binding assay, gel retardation
Experimental: Gel retardation experiments were conducted as previously described (Yan et al., [2013]). Briefly, 300 ng of the plasmid pUC18 was mixed with different concentrations of COG1410 in 30 μl of buffer (10 mM Tris-HCl and 1 mM EDTA buffer, pH 8.0) and incubated at room temperature for 30 min. The reaction mixtures were mixed with 1 × native loading buffer and subjected to 1.5% agarose gel electrophoresis. The migration of DNA was detected by the fluorescence of GelRed dye.

[12] = cytotoxicity assay, Cell Counting Kit 8; settings: human, L02 cells (human hepatic, normal liver cell)
Experimental: Briefly, 100 μl of human hepatic L02 cells was seeded in the 96-well plate with 4 × 10^3 per well in RPMI-1640 medium containing 20% FBS and incubated at 37°C in a 5% CO2 atmosphere for 24 h. The cells without exposure to peptides were used as a negative control. Then, the L02 cells were incubated with different concentrations of COG1410 for another 24 h. Then, 10 μl of CCK8 solution was added to each well. After 2 h of incubation, the optical absorbance at 450 nm was measured with a BioTek synergy H1 plate reader. […] The experiments were done in triplicate.

[13] = tested on: Escherichia coli ATCC25922
[14] = tested on: MDR Klebsiella oxytoca 7–85; settings: microdilution method in the corresponding broth
[15] = tested on: panel of Gram-positive and Gram-negative strains; assay: MIC on a panel of strains; assay type: cell-based; settings: Streptococcus pneumoniae, methicillin-sensitive S. aureus, MRSA, Klebsiella pneumoniae, Pseudomonas aeruginosa
Experimental: The antimicrobial activity of COG1410 was determined by measuring the minimal inhibition concentration (MIC) values on a panel of Gram-positive and Gram-negative strains (Table 1).

[16] = tested on: vancomycin-resistant Enterococcus faecalis 11–34; settings: vancomycin-resistant 11–34
[17] = tested on: A. baumannii YQ4 intracellular ROS; assay: ROS detection, DCFH-DA probe; assay type: cell-based, Acinetobacter baumannii; settings: 16 μg/ml
Experimental: The intracellular ROS level was determined by the Reactive Oxygen Species Assay Kit of Beyotime Biotechnology (S0033S), according to the manufacturer's instructions. The log-phase culture of A. baumannii YQ4 was harvested and washed in PBS, and then diluted 10 times, approximately 10^7 CFU/ml. In total, 1 μl of DCFH-DA (10 μM) was added to 1 ml of cell culture and incubated at 37°C for 20 min. Then the fluorescence probe was fully removed by washing with PBS three times and resuspending in PBS, followed by the addition of COG1410 (16 μg/ml) or water. Rosup (50 μg/ml) was positive control in the kit. The culture was incubated at 37°C for 30 min. The fluorescence intensity was measured by a plate reader at an excitation wavelength of 488 nm and an emission wavelength of 525 nm. The experiment was performed in duplicate.

A. baumannii YQ4 [18] = assay: scanning electron microscopy (SEM) of treated cells; assay type: cell-based, Acinetobacter baumannii; settings: 1× MIC (16 μg/ml), PBS, 37°C, 30 min
Experimental: The log-phase culture of A. baumannii YQ4 was prepared as described above, harvested, and washed once with PBS. The pellets were suspended in PBS supplemented with 1 × COG1410 (16 μg/ml) or 1 × polymyxin B (16 μg/ml) and incubated at 37°C for 30 min. The untreated culture was used as a positive control to observe the morphology of the intact cell. […] After washing three times with PBS, the cells were post-fixed in 1% osmium at 4 °C for 1 h. After washing in distilled water for 1 h, the bacteria were dehydrated in the ascending concentrations of ethanol. Finally, these samples were transferred to ThermoFisher Quattro SEM for image collection after tert-butanol freeze-drying and sputter coating.

A. baumannii YQ4 [19] = assay: dynamic time-kill assay in PBS
[20] = tested on: MDR Citrobacter freundii 7–83; settings: microdilution method in the corresponding broth
[21] = tested on: human red blood cell (RBC); settings: 1 h
Experimental: The anti-coagulated (citrate) whole blood sample was pelleted by centrifugation at 700 g for 8 min, washed three times with PBS, and suspended in 0.5% (vol/vol) PBS. […] The highest concentration was 512 μg/ml (363 μM). PBS and Triton X-100 (0.1%) were used as negative and positive controls, respectively. The plate was incubated at 37°C for 1 h, followed by centrifugation at 1,000 rpm for 5 min at 4°C. Aliquots of 60 μl of the supernatant from each well were quickly transferred to a new flat-bottom 96-well plate. The optical absorbance at OD414 was measured with a microplate reader (BioTek, synergy H1). The hemolysis percentage was then normalized with respect to the averaged negative (0%) and positive (100%) controls. Three independent experiments were conducted.

CC(=O)N[C@@H](C)C(=O)N[C@@H](CO)C(=O)NC(C)(C)C(=O)N[C@@H](CC(C)C)C(=O)N[C@@H](CCCNC(=N)N)C(=O)N[C@@H](CCCCN)C(=O)N[C@@H](CC(C)C)C(=O)NC(C)(C)C(=O)N[C@@H](CCCCN)C(=O)N[C@@H](CCCNC(=N)N)C(=O)N[C@@H](CC(C)C)C(=O)N[C@@H](CC(C)C)C(N)=O [COG1410, acetyl-AS-Aib-LRKL-Aib-KRLL-amide] (Ac-AS[Aib]LRKL[Aib]KRLL-NH2)
change of inhibition diameter / degradation [1]: did not significantly change; also recorded: does not seem to be significantly degraded | MIC [2]: >256 µg/mL | MIC [3]: 16 µg/mL (≈ 11.4 µM) | MIC [4]: 16 µg/mL (≈ 11.4 µM) | survival of infected nematodes [5]: alleviated the death of infected nematodes but not statistically significantly | ATP leak (extracellular ATP) (A. baumannii YQ4 [6]): significantly more than untreated control and tigecycline treatment group | MIC [7]: 16 µg/mL (≈ 11.4 µM) | MIC [8]: >256 µg/mL | MIC [9]: >256 µg/mL | SYTO-9/PI staining of treated cells (A. baumannii YQ4 [10]): red fluorescence | increase of MIC after serial passage (A. baumanii YQ4): 4 fold | MIC [11]: >256 µg/mL | electrophoretic mobility of pUC18 (plasmid pUC18; 1× MIC, 300 ng plasmid, 30 min room temperature, 1.5% agarose): only part of them migrated | electrophoretic mobility of pUC18 (plasmid pUC18; higher concentrations than 1× MIC): completely retarded | EC50 at 24 h [12]: 58.9 µg/mL (≈ 41.8 µM) | MIC [13]: 64 µg/mL (≈ 45.4 µM) | MIC [14]: >256 µg/mL | antimicrobial activity in words [15]: inactive | MIC [16]: 32 µg/mL (≈ 22.7 µM) | ROS production, in words ([17]; 37°C, Figure 3D): significantly lead to more ROS production | more ROS detected by DCFH-DA probe ([17]; treatment for 20 min as printed): 30% | cell morphology by SEM (A. baumannii YQ4 [18]): intact, with little debris observed | elimination of the inoculum (A. baumannii YQ4 [19]; 5 × MIC (80 μg/ml), within 5 min, PBS, inoculum 1 × 10^8 CFU/ml): completely eliminated | time to eliminate large inocula (A. baumannii YQ4 [19]; inocula 10^8 CFU/ml): ≤ 30 min | MIC [20]: 16 µg/mL (≈ 11.4 µM) | EC50, lysis of half of the red blood cells [21]: 441 µg/mL | hemolysis ([21]; red cells of human, 128 μg/ml): < 5%
